From US20050053611A1, “Pharmaceutical kit comprising anti-human seminal plasma protein single chain antibody/human carboxypeptidase fusion protein and prodrug” (priority 2001, published 2005)

What was measured:
[1] = system: PC cells (PC-3 and PC-3m); assay: colony formation assay (soft agar culture); assay type: cell-based, human; conditions: 2 weeks
Method: 2) Colony formation assay. The colony formation assay was performed using soft agar culture method. 9 different groups were included in the assay: {circle over (1)}MTX+PC cell, {circle over (2)}MTX-α-Phe+PC cell, {circle over (3)}fusion protein+PC cell, {circle over (4)}MTX-α-Phe+CP-A+PC cell, {circle over (5)}MTX-α-Phe+fusion protein+PC cell, {circle over (6)}MTX-α-Arg+PC cell, {circle over (7)}MTX-α-Arg+CP-A+PC cell, {circle over (8)}MTX-α-Arg+fusion protein+PC cell and {circle over (9)}control group (PC cell only). All the tested prodrugs were used in three different concentrations, i.e. each of MTX, MTX-α-Phe and MTX-α-Arg was used at 0.4, 4, and 40 μg/ml. CP-A was used in a volume of 10 μl (2.5 mU/μl) and fusion protein was used in a volume of 10 μl (1 mg/ml). The density of PC cell was 200/well. The plate was incubated in a CO2 incubator at 37° C. for 2 weeks. After incubation, PC cells were fixed by a mixture of acetic acid and ethanol (1:3) for 2 h. Then microscopy was employed to calculate the percentage of colony formation.

[2] = system: PC-3m tumor; conditions: for histopathologic examination of tumors: after 5 weeks of treatment; for average survival time / lifespan: from beginning of treatment till natural death
Method: Tumor Model: BALB/C nude mice aged 4-6 weeks and weight at 16-20 g were provided by the Experimental Animal Center of the Fourth Military Medical University (Xi'an, China) and bred in a sterile isolator. They were derma-inoculated with 0.1 ml of PC-3m suspension (1×10^7 cells). The drugs were administrated when the volume of tumor was approximately 0.5 cm^3.
1) Groups and treatments. 56 nude mice carrying tumors were randomized into 7 groups: {circle over (1)}Control group, intravenously administered with 0.5 ml of saline; {circle over (2)}Treatment Group I, intravenously administered with MTX (5 mg/kg); {circle over (3)}Treatment Group II, intravenously administered with MTX-α-Phe (5.32 mg/kg) {circle over (4)}Treatment Group III, intravenously administered with 0.5 ml of anti-γ-SmMcAb-CP-A; {circle over (5)}Treatment Group IV, intravenously administered with 0.5 ml of the fusion protein; {circle over (6)}Treatment Group V, intravenously administered with 0.5 ml of γ-SmMcAb-CP-A first and MTX-α-Phe (5.32 mg/kg) 72 h later (ADEPT-1); {circle over (7)}Treatment Group VI, intravenously administered with 0.5 ml of the fusion protein first and MTX-α-Phe (5.32 mg/kg) 72 h later (ADEPT-2).
Tumor-inhibition rate: The major diameter and minor diameter of the tumor were measured every week after the administration of drugs. The mass of tumor (m=½×major diameter×minor diameter^2) and tumor-inhibition rate (TIR) was thus calculated according the following formula. [formula]
Cell cycle of tumor cells is calculated by the formula: tc=[lg(1+G)/lg(m2/m1)]×t (G: a component of the tumor growth group; m2, m1: tumor mass of a given component of the group observed at different time points; t: interval between observations).
Survival time of the nude mice refers to the period from the beginning of the treatment till natural death.
Histopathologic observation includes gross specimen examination and microscopic examination. Samples of tumor and organs were fixed with 100 ml/L formalin. Pathologic section was stained […] underwent microscopy observation.

[3] = system: PC cells (PC-3 and PC-3m); assay type: cell-based; conditions: MTT, 48 h; for lethal / cytotoxic effect to PC cells: lethal curves
Method: 1) MTT assay: PC-3 and PC-3m cells were seeded separately to a 96-well plate at 1×10^4 cells/ml/well. MTX, MTX-α-Phe, MTX-α-Phe+CP-A, MTX-α-Phe+fusion proteins and MTX-α-Arg, MTX-α-Arg+fusion proteins at different concentrations were also added into those wells. 3 parallel wells were set for each concentration. The cells were incubated in a CO2 incubator for 48 h. 20 μl of a solution of thiazole blue in PBS (5 mg/ml) was added to each well and incubated at 37° C. for 4 h. The culture medium and free thiazole blue were discarded and 0.1 ml of dimethylsulfoxide was added to each well. The absorbance at 405 nm was measured and mortality rate was calculated.

[4] = system: PC cells (PC-3 and PC-3m); assay: cell cycle kinetic analysis by flow cytometry; assay type: cell-based, human
Method: 3) Kinetic effects of the fusion protein/prodrug on the growth cycle of PC cells: PC-3 and PC-3m cells were added to several 10 ml culture flasks (10^6/ml). MTX, MTX-α-Arg, MTX-α-Phe+CP-A, MTX-α-Phe+fusion protein at different concentrations were added to the flasks, respectively. The cells were collected at 6 h, 16 h and 24 h after the addition of the tested drugs and washed twice with cold saline and then fixed with 950 ml/L ethanol. The cells were stained by routine DNA staining method. Flow cytometry was employed in the kinetic analysis (FACS Profile II; Laser rate: 15 mW; Green light filter: 488 nm).

Row | SMILES | colony-formation rate [1] [%] | tumor size compared with control ([2]; P>0.05) | histopathologic examination of tumors [2] | average survival time / lifespan [2] [days] | tumor cell growth cycle ([2]; mouse, in vivo) | lethal / cytotoxic effect to PC cells [3] | IC50 ([3]; PC cells, read-out: IC50 of the prodrug) [mM] | kinetic change of cell cycle [4] | colony formation ([1]; P<0.001) | volume of tumors ([2]; by the 6th week) | growth of tumors ([2]; from the 2nd week on) | living quality of mice ([2]; mouse, in vivo) | whole blood count ([2]; mouse, in vivo) | cell proliferation index [4]
1 | CN(Cc1cnc2nc(N)nc(N)c2n1)c1ccc(C(=O)N[C@@H](CCC(=O)O)C(=O)N[C@@H](Cc2ccccc2)C(=O)O)cc1 [MTX-α-Phe, methotrexate-α-phenylalanine] | 88 | small compared with that of the control but the difference was not significant | characteristics typical of adenocarcinoma | 31 ± 12.2 | 1.7±0.2 | no lethal effect | 72 | did not show any significant kinetic change | – | – | – | – | – | –
2 | CN(Cc1cnc2nc(N)nc(N)c2n1)c1ccc(C(=O)NC(CCC(=O)O)C(=O)NC(CCCNC(=N)N)C(=O)O)cc1 (stereo not drawn) [MTX-α-Arg] | 91 | – | – | – | – | no lethal effect | – | – | – | – | – | – | – | –
3 | CN(Cc1cnc2nc(N)nc(N)c2n1)c1ccc(C(=O)N[C@@H](CCC(=O)O)C(=O)O)cc1 [MTX, Methotrexate] | – | – | a large area of necrosis in the tumors | 67 ± 13.8 | 2.5±0.2 | – | – | – | none of these groups had any colony formed | significantly smaller than that in other groups | decreased | poor living quality | significantly lower than that of the ADEPT groups | decreased significantly
